Measured values taken from US20250206732A1, “COMPOUNDS AND METHODS FOR THE TARGETED DEGRADATION OF KRAS” (Arvinas Operations, Inc., priority 2022, published 2025).

Molecular target: T1, AsPC-1 HiBiT-KRASG12D (Homo sapiens, UniProt P01116, G12D)
T1 construct: insert the HiBiT tag onto the N-terminus of one or more of the endogenous KRAS alleles; endogenous in cells; host or cells: AsPC-1 (ATCC CRL-1682), CRISPR-Cas9 knock-in clone, one tagged allele
Assay: HiBiT degradation assay (G12D), AsPC-1 HiBiT-KRASG12D cells
Assay type: cell-based
Settings: 24 hours treatment; for Dmax: ASPC1, AsPC-1 HiBiT-KRASG12D cells, maximum degradation observed; for DC50: AsPC-1 HiBiT-KRASG12D cells, HiBiT luminescence
From the text: Reagents. […] SW1573 cells are homozygous for the G12C mutation in KRAS, AsPC-1 cells are homozygous for the G12D mutation, and SW620 cells are homozygous for the G12V mutation. […] For degradation assays, 384 well plates were used. Alamar blue was purchased from ThermoFisher scientific (A50101) and used according to manufacturer instructions. The Nano-Glo® HiBiT Lytic Detection System and Nano-Glo® HiBiT Blotting System were purchased from Promega (#N3050 and #N2410) and used according to manufacturer instructions.
To create the AsPC-1 HiBiT-KRASG12D cell line, CRISPR-Cas9 was used to insert the HiBiT tag onto the N-terminus of one or more of the endogenous KRAS alleles. […] After knock-in of the tag, individual clones were isolated by single cell dilution and screened for HiBiT insertion by PCR. […] This clone was used in further studies.
HiBiT degradation assays (G12C and G12D). […] All assays were performed in triplicate. Cells were treated with compounds for 24 hours at 37° C. in an incubator containing 5% CO2. Following treatment, alamar blue was used to determine if any compounds led to a loss in cell viability after 24 hours. The 10× alamar blue reagent was added to a final concentration of 1× as recommended by the manufacturer and cells were returned to the incubator for 4 hours. Plates were then allowed to equilibrate to room temperature and fluorescence was measured using a Perkin-Elmer EnVision. After completion of the fluorescence read, the liquid from each well was removed and the cells were washed with PBS. The Nano-Glo® HiBiT detection reagent was prepared according to the manufacturer's instructions and added to each well after the PBS wash was removed. Following incubation at room temperature for 45 minutes, the luminescence was read using the ultra-sensitive luminescence aperture on the Envision instrument.
Data analysis. Fluorescence values from the alamar blue treatment were normalized to the DMSO-only control for each compound titration.

T1 sequence (P01116 1-188 isoform P01116-2 G12D): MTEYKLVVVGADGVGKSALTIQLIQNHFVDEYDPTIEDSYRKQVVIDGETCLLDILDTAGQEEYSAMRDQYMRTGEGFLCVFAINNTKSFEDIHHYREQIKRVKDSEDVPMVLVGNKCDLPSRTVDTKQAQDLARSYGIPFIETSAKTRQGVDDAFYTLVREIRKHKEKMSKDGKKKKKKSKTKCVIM

Structure (SMILES) | Dmax [%] | DC50 [nM]
CCc1cccc2cc(O)cc(-c3ncc4c(N5CC6CCC(C5)N6)nc(OCCN5CCC(CN6CC(Oc7cc([C@H](C(=O)N8C[C@H](O)C[C@H]8C(=O)N[C@@H](C)c8ccc(-c9scnc9C)cc8)C(C)C)on7)C6)CC5)nc4c3F)c12 [Compound 244, (2S,4R)-1-[(2R)-2-[3-({1-[(1-{2-[(4-{3,8-diazabicyclo[3.2.1]octan-3-yl}-7-(8-ethyl-3-hydroxynaphthalen-1-yl)-8-fluoropyrido[4,3-d]pyrimidin-2-yl)oxy]ethyl}piperidin-4-yl)methyl]azetidin-3-yl}oxy)-1,2-oxazol-5-yl]-3-methylbutanoyl]-4-hydroxy-N-[(1S)-1-[4-(4-methyl-1,3-thiazol-5-yl)phenyl]ethyl] pyrrolidine-2-carboxamide] | 80 to 100 | < 600
C#Cc1c(F)ccc2cc(O)cc(-c3ncc4c(N5CC6CCC(C5)N6)nc(OCCN5CCC(COc6cc([C@H](C(=O)N7C[C@H](O)C[C@H]7C(=O)N[C@@H](C)c7ccc(-c8ccnn8C)cc7)C(C)C)on6)CC5)nc4c3F)c12 (relative stereo) [Compound 85, (2S,4R)-1-[(2R*)-2-{3-[(1-{2-[(4-{3,8-diazabicyclo[3.2.1]octan-3-yl}-7-(8-ethynyl-7-fluoro-3-hydroxynaphthalen-1-yl)-8-fluoropyrido[4,3-d]pyrimidin-2-yl)oxy]ethyl}piperidin-4-yl)methoxy]-1,2-oxazol-5-yl}-3-methylbutanoyl]-4-hydroxy-N-[(1S)-1-[4-(1-methyl-1H-pyrazol-5-yl)phenyl]ethyl]pyrrolidine-2-carboxamide] | 80 to 100 | < 600
CCc1cccc2cc(O)cc(-c3ncc4c(N5CC6CCC(C5)N6)nc(OC[C@@H]5CN(CC6CN(c7cc([C@@H](C(=O)N8C[C@H](O)C[C@H]8C(=O)N[C@@H](C)c8ccc(-c9scnc9C)cc8)C(C)C)on7)C6)CCN5C)nc4c3F)c12 [Compound 164, (2S,4R)-1-[(2S)-2-[3-(3-{[(3S)-3-{[(4-{3,8-diazabicyclo[3.2.1]octan-3-yl}-7-(8-ethyl-3-hydroxynaphthalen-1-yl)-8-fluoropyrido[4,3-d]pyrimidin-2-yl)oxy]methyl}-4-methylpiperazin-1-yl]methyl}azetidin-1-yl)-1,2-oxazol-5-yl]-3-methylbutanoyl]-4-hydroxy-N-[(1S)-1-[4-(4-methyl-1,3-thiazol-5-yl)phenyl]ethyl]pyrrolidine-2-carboxamide] | 20 to 60 | > 3000
CCc1cccc2cc(O)cc(-c3ncc4c(N5CC6CCC(C5)N6)nc(OCCN5CCN(CC6CN(c7cc([C@@H](C(=O)N8C[C@H](O)C[C@H]8C(=O)N[C@@H](C)c8ccc(-c9scnc9C)cc8)C(C)C)on7)C6)CC5)nc4c3F)c12 [Compound 221, (2S,4R)-1-[(2S)-2-(3-{3-[(4-{2-[(4-{3,8-diazabicyclo[3.2.1]octan-3-yl}-7-(8-ethyl-3-hydroxynaphthalen-1-yl)-8-fluoropyrido[4,3-d]pyrimidin-2-yl)oxy]ethyl}piperazin-1-yl)methyl]azetidin-1-yl}-1,2-oxazol-5-yl)-3-methylbutanoyl]-4-hydroxy-N-[(1S)-1-[4-(4-methyl-1,3-thiazol-5-yl)phenyl]ethyl]pyrrolidine-2-carboxamide] | – | > 3000
CCc1cccc2cc(O)cc(-c3ncc4c(N5CC6CCC(C5)N6)nc(OCCN5CCC(CN6CCN(c7cc([C@H](C(=O)N8C[C@H](O)C[C@H]8C(=O)N[C@@H](C)c8ccc(-c9ccnn9C)cc8)C(C)C)on7)CC6)CC5)nc4c3F)c12 [Compound 191, (2S,4R)-1-[(2R)-2-(3-{4-[(1-{2-[(4-{3,8-diazabicyclo[3.2.1]octan-3-yl}-7-(8-ethyl-3-hydroxynaphthalen-1-yl)-8-fluoropyrido[4,3-d]pyrimidin-2-yl)oxy]ethyl}piperidin-4-yl)methyl]piperazin-1-yl}-1,2-oxazol-5-yl)-3-methylbutanoyl]-4-hydroxy-N-[(1S)-1-[4-(1-methyl-1H-pyrazol-5-yl)phenyl]ethyl]pyrrolidine-2-carboxamide] | 80 to 100 | < 600
CCc1cccc2cc(O)cc(-c3ncc4c(N5CC6CCC(C5)N6)nc(OC[C@@]56CCCN5[C@H](COC(=O)N5CC(COc7cc([C@@H](C(=O)N8C[C@H](O)C[C@H]8C(=O)N[C@@H](C)c8ccc(-c9scnc9C)cc8)C(C)C)on7)C5)CC6)nc4c3F)c12 [Compound 115, [(3S,7aS)-7a-{[(4-{3,8-diazabicyclo[3.2.1]octan-3-yl}-7-(8-ethyl-3-hydroxynaphthalen-1-yl)-8-fluoropyrido[4,3-d]pyrimidin-2-yl)oxy]methyl}-hexahydro-1H-pyrrolizin-3-yl]methyl 3-[({5-[(2S)-1-[(2S,4R)-4-hydroxy-2-{[(1S)-1-[4-(4-methyl-1,3-thiazol-5-yl)phenyl]ethyl]carbamoyl}pyrrolidin-1-yl]-3-methyl-1-oxobutan-2-yl]-1,2-oxazol-3-yl}oxy)methyl]azetidine-1-carboxylate] | 20 to 60 | 600 to 1000
CCc1cccc2cc(O)cc(-c3ncc4c(N5CC6CCC(C5)N6)nc(OCCN5CCC(F)(CN6CCN(c7cc([C@H](C(=O)N8C[C@H](O)C[C@H]8C(=O)N[C@@H](C)c8ccc(-c9scnc9C)cc8)C(C)C)on7)[C@@H](C)C6)CC5)nc4c3F)c12 [Compound 209, (2S,4R)-1-[(2R)-2-{3-[(2S)-4-[(1-{2-[(4-{3,8-diazabicyclo[3.2.1]octan-3-yl}-7-(8-ethyl-3-hydroxynaphthalen-1-yl)-8-fluoropyrido[4,3-d]pyrimidin-2-yl)oxy]ethyl}-4-fluoropiperidin-4-yl)methyl]-2-methylpiperazin-1-yl]-1,2-oxazol-5-yl}-3-methylbutanoyl]-4-hydroxy-N-[(1S)-1-[4-(4-methyl-1,3-thiazol-5-yl)phenyl]ethyl]pyrrolidine-2-carboxamide] | 80 to 100 | < 600
CCc1cccc2cc(O)cc(-c3ncc4c(N5CC6CCC(C5)N6)nc(OC[C@]56CCCN5[C@H](COC(=O)N5CCN(c7cc([C@H](C(=O)N8C[C@H](O)C[C@H]8C(=O)N[C@@H](C)c8ccc(-c9scnc9C)cc8)C(C)C)on7)C[C@@H]5C)CC6)nc4c3F)c12 [Compound 132, [(3S,7aR)-7a-{[(4-{3,8-diazabicyclo[3.2.1]octan-3-yl}-7-(8-ethyl-3-hydroxynaphthalen-1-yl)-8-fluoropyrido[4,3-d]pyrimidin-2-yl)oxy]methyl}-hexahydro-1H-pyrrolizin-3-yl]methyl (2S)-4-{5-[(2R)-1-[(2S,4R)-4-hydroxy-2-{[(1S)-1-[4-(4-methyl-1,3-thiazol-5-yl)phenyl]ethyl]carbamoyl}pyrrolidin-1-yl]-3-methyl-1-oxobutan-2-yl]-1,2-oxazol-3-yl}-2-methylpiperazine-1-carboxylate] | 80 to 100 | < 600
CCc1cccc2cc(O)cc(-c3ncc4c(N5CC6CCC(C5)N6)nc(OC[C@]56CCCN5[C@H](COc5cc([C@@H](C(=O)N7C[C@H](O)C[C@H]7C(=O)N[C@@H](C)c7ccc(-c8scnc8C)cc7)C(C)C)on5)CC6)nc4c3F)c12 [Compound 324, (2S,4R)-1-[(2S)-2-(3-{[(3S,7aR)-7a-{[(4-{3,8-diazabicyclo[3.2.1]octan-3-yl}-7-(8-ethyl-3-hydroxynaphthalen-1-yl)-8-fluoropyrido[4,3-d]pyrimidin-2-yl)oxy]methyl}-hexahydro-1H-pyrrolizin-3-yl]methoxy}-1,2-oxazol-5-yl)-3-methylbutanoyl]-4-hydroxy-N-[(1S)-1-[4-(4-methyl-1,3-thiazol-5-yl)phenyl]ethyl]pyrrolidine-2-carboxamide] | 80 to 100 | –
CCc1cccc2cc(O)cc(-c3ncc4c(N5CCCCCC5)nc(OC[C@]56CCCN5[C@H](COC(=O)N5CC7(C5)CN(c5cc([C@H](C(=O)N8C[C@H](O)C[C@H]8C(=O)N[C@@H](C)c8ccc(-c9scnc9C)cc8)C(C)C)on5)C7)CC6)nc4c3F)c12 [Compound 283, [(3S,8R)-8-[[4-(azepan-1-yl)-7-(8-ethyl-3-hydroxy-1-naphthyl)-8-fluoro-pyrido[4,3-d]pyrimidin-2-yl]oxymethyl]-1,2,3,5,6,7-hexahydropyrrolizin-3-yl]methyl 6-[5-[(1R)-1-[(2S,4R)-4-hydroxy-2-[[(1S)-1-[4-(4-methylthiazol-5-yl)phenyl]ethyl]carbamoyl]pyrrolidine-1-carbonyl]-2-methyl-propyl]isoxazol-3-yl]-2,6-diazaspiro[3.3]heptane-2-carboxylate] | 80 to 100 | < 600
CCc1cccc2cc(O)cc(-c3ncc4c(N5CC6CCC(C5)N6)nc(OCCN5CCC(CCOc6cc([C@@H](C(=O)N7C[C@H](O)C[C@H]7C(=O)N[C@@H](C)c7ccc(-c8scnc8C)cc7)C(C)C)on6)CC5)nc4c3F)c12 [Compound 248] | – | > 3000
